Assays:
[1] = test system: galium; test: Test A postemergence; format: in vivo, Galium aparine; details: postemergence, 10 days
Method in brief: (§1)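 Seeds in loam–sand blend received a directed preemergence soil spray of compound in non-phytotoxic solvent with surfactant; postemergence plants (2–10 cm, one- to two-leaf stage) were sprayed with the same formulation. After 10 days in greenhouse, injury was rated visually versus untreated controls, 0 (no effect) to 100 (complete control).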

[2] = test system: kochia; test: Test A postemergence; format: in vivo, Bassia scoparia; details: postemergence, 10 days
Method in brief: as §1

[3] = test system: pigweed, palmer; test: Test A postemergence; format: in vivo, Amaranthus palmeri; details: postemergence, 10 days
Method in brief: as §1

[4] = test system: blackgrass; test: Test A preemergence; format: in vivo, Alopecurus myosuroides; details: visual injury after 10 days, 0 to 100 scale, 0 is no effect, 100 is complete control
Method in brief: as §1

[5] = test system: foxtail, giant; test: Test A preemergence; format: in vivo, Setaria faberi; details: visual injury after 10 days, 0 to 100 scale, 0 is no effect, 100 is complete control
Method in brief: as §1

[6] = test system: oat, wild; test: Test A preemergence; format: in vivo, Avena fatua; details: visual injury after 10 days, 0 to 100 scale, 0 is no effect, 100 is complete control
Method in brief: as §1

[7] = test system: pigweed, palmer; test: Test A preemergence; format: in vivo, Amaranthus palmeri; details: visual injury after 10 days, 0 to 100 scale, 0 is no effect, 100 is complete control
Method in brief: as §1

[8] = test system: ryegrass, Italian; test: Test A preemergence; format: in vivo, Lolium multiflorum; details: visual injury after 10 days, 0 to 100 scale, 0 is no effect, 100 is complete control
Method in brief: as §1

[9] = test system: foxtail, giant; test: Test A postemergence; format: in vivo, Setaria faberi; details: postemergence, 10 days
Method in brief: as §1

[10] = test system: wheat; test: Test A postemergence; format: in vivo, Triticum aestivum; details: postemergence, 10 days
Method in brief: as §1

[11] = test system: ryegrass, Italian; test: Test A postemergence; format: in vivo, Lolium multiflorum; details: postemergence, 10 days
Method in brief: as §1

[12] = test system: corn; test: Test A postemergence; format: in vivo, Zea mays; details: postemergence, 10 days
Method in brief: as §1

[13] = test system: soybean; test: Test A postemergence; format: in vivo, Glycine max; details: postemergence, 10 days
Method in brief: as §1

[14] = test system: oat, wild; test: Test A postemergence; format: in vivo, Avena fatua; details: postemergence, 10 days
Method in brief: as §1

[15] = test system: barnyardgrass; test: Test A preemergence; format: in vivo, Echinochloa crusgalli; details: visual injury after 10 days, 0 to 100 scale, 0 is no effect, 100 is complete control
Source text: (§2) Seeds of plant species selected from barnyardgrass (Echinochloa crusgalli), blackgrass (Alopecurus myosuroides), corn (Zea mays), foxtail, giant (giant foxtail, Setaria faberi), goosegrass (Eleusine indica), kochia (Bassia scoparia), oat, wild (wild oat, Avena fatua), pigweed, palmer (palmer amaranth, palmer pigweed, Amaranthus palmeri), Pigweed, Redroot (redroot pigweed, Amaranthus retroflexus), ragweed (common ragweed, Ambrosia artemisiifolia), ryegrass, Italian (italian ryegrass, Lolium multiflorum), soybean (Glycine max), and wheat (Triticum aestivum) were planted into a blend of loam soil and sand and treated preemergence with a directed soil spray using test chemicals formulated in a non-phytotoxic solvent mixture which included a surfactant. At the same time, plants selected from these crops and weed species and also galium (catchweed bedstraw, Galium aparine) and horseweed (Erigeron canadensis) were planted in pots containing the same blend of loam soil and sand and treated with postemergence applications of test chemicals formulated in the same manner. Plants ranged in height from 2 to 10 cm and were in the one- to two-leaf stage for the postemergence treatment. Treated plants and untreated controls were maintained in a greenhouse for 10 days, after which time all treated plants were compared to untreated controls and visually evaluated for injury. Plant response ratings, summarized in Table A, are based on a 0 to 100 scale where 0 is no effect and 100 is complete control. A dash (-) response means no test result.

[16] = test system: blackgrass; test: Test A postemergence; format: in vivo, Alopecurus myosuroides; details: postemergence, 10 days
Method in brief: as §1

[17] = test system: ragweed; test: Test A postemergence; format: in vivo, Ambrosia artemisiifolia; details: postemergence, 10 days
Method in brief: as §1

[18] = test system: wheat; test: Test A preemergence; format: in vivo, Triticum aestivum; details: visual injury after 10 days, 0 to 100 scale, 0 is no effect, 100 is complete control
Method in brief: as §1

[19] = test system: soybean; test: Test A preemergence; format: in vivo, Glycine max; details: visual injury after 10 days, 0 to 100 scale, 0 is no effect, 100 is complete control
Method in brief: as §1

[20] = test system: corn; test: Test A preemergence; format: in vivo, Zea mays; details: visual injury after 10 days, 0 to 100 scale, 0 is no effect, 100 is complete control
Method in brief: as §1

[21] = test system: ragweed; test: Test A preemergence; format: in vivo, Ambrosia artemisiifolia; details: visual injury after 10 days, 0 to 100 scale, 0 is no effect, 100 is complete control
Method in brief: as §1

[22] = test system: barnyardgrass; test: Test A postemergence; format: in vivo, Echinochloa crusgalli; details: postemergence, 10 days
Source text: as §2

[23] = test system: horseweed; test: Test A postemergence; format: in vivo, Erigeron canadensis; details: postemergence, 10 days
Method in brief: as §1

[24] = test system: kochia; test: Test A preemergence; format: in vivo, Bassia scoparia; details: visual injury after 10 days, 0 to 100 scale, 0 is no effect, 100 is complete control
Method in brief: as §1

[25] = 125 g ai/ha, 0 to 100 scale, 0 no effect, 100 complete control
[26] = 500 g ai/ha, visual injury, 0 to 100 scale (0 no effect, 100 complete control)

**Q.** What does the source list for `Cc1cccc2c1O[C@@H](C)CN2C(=O)c1cccc(-n2cnc(COC(C)C)n2)c1` [Compound 135]?
**A.** Galium plant response rating [1, 25]: 50; Plant response rating, Galium [1, 26]: 80; Kochia plant response rating [2, 25]: 0; Plant response rating, Kochia [2, 26]: 50; Pigweed, Palmer plant response rating [3, 25]: 10; Plant response rating, Pigweed, Palmer [3, 26]: 20; Plant response rating, Blackgrass ([4]; 125 g ai/ha): 60; Plant response rating, Blackgrass ([4]; 500 g ai/ha): 80; Plant response rating, Foxtail, Giant ([5]; 125 g ai/ha): 10; Plant response rating, Foxtail, Giant ([5]; 500 g ai/ha): 100; Plant response rating, Oat, Wild ([6]; 125 g ai/ha): 60; Plant response rating, Oat, Wild ([6]; 500 g ai/ha): 90; Plant response rating, Pigweed, Palmer ([7]; 125 g ai/ha): 10; Plant response rating, Pigweed, Palmer ([7]; 500 g ai/ha): 30; Plant response rating, Ryegrass, Italian ([8]; 125 g ai/ha): 60; Plant response rating, Ryegrass, Italian ([8]; 500 g ai/ha): 90; Foxtail, Giant plant response rating [9, 25]: 10; Plant response rating, Foxtail, Giant [9, 26]: 90; Wheat plant response rating [10, 25]: 10; Plant response rating, Wheat [10, 26]: 50; Ryegrass, Italian plant response rating [11, 25]: 0; Plant response rating, Ryegrass, Italian [11, 26]: 50; Corn plant response rating [12, 25]: 10; Plant response rating, Corn [12, 26]: 60; Soybean plant response rating [13, 25]: 90; Plant response rating, Soybean [13, 26]: 100; Oat, Wild plant response rating [14, 25]: 0; Plant response rating, Oat, Wild [14, 26]: 20; Plant response rating, Barnyardgrass ([15]; 125 g ai/ha): 30; Plant response rating, Barnyardgrass ([15]; 500 g ai/ha): 70; Blackgrass plant response rating [16, 25]: 0; Plant response rating, Blackgrass [16, 26]: 70; Ragweed plant response rating [17, 25]: 0; Plant response rating, Ragweed [17, 26]: 30; Plant response rating, Wheat ([18]; 125 g ai/ha): 0; Plant response rating, Wheat ([18]; 500 g ai/ha): 30; Plant response rating, Soybean ([19]; 125 g ai/ha): 20; Plant response rating, Soybean ([19]; 500 g ai/ha): 30; Plant response rating, Corn ([20]; 125 g ai/ha): 0; Plant response rating, Corn ([20]; 500 g ai/ha): 10; Plant response rating, Ragweed ([21]; 125 g ai/ha): 0; Plant response rating, Ragweed ([21]; 500 g ai/ha): 0; Barnyardgrass plant response rating [22, 25]: 0; Plant response rating, Barnyardgrass [22, 26]: 10; Horseweed plant response rating [23, 25]: 0; Plant response rating, Horseweed [23, 26]: 0; Plant response rating, Kochia ([24]; 125 g ai/ha): 0; Plant response rating, Kochia ([24]; 500 g ai/ha): 0
